Measurements: patent US11780832B2, “Lactivicin compounds, their preparation and use as antibacterial agents” (priority 2021, dated 2023)
Values after ≈ are worked out from the molar mass of the structure shown.

Assays:
Format in all cases: cell-based
[1] = test system: Acinetobacter baumannii ATCC 19606; assay: MIC, CLSI broth microdilution; settings: ATCC19606
Summary of the method: (§1)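 Two subcultures from frozen stock preceded testing. Final inoculum: 5×10^5 CFU/mL. Final compound concentrations: 16-0.0125 μg/mL, doubling dilutions, CLSI broth method.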

[2] = test system: Enterobacter cloacae species complex NDM-1; assay: MIC, CLSI broth microdilution
Summary of the method: as §1

[3] = test system: Escherichia coli CTX-M-15; assay: MIC, CLSI broth microdilution; settings: CTXM15
Summary of the method: as §1

[4] = test system: Klebsiella aerogenes VIM-1, SHV-12; assay: MIC, CLSI broth microdilution
Summary of the method: as §1

[5] = test system: Klebsiella oxytoca KPC-2, TEM-1; assay: MIC, CLSI broth microdilution; settings: KPC-2, TEM-1, read-out: MIC
Summary of the method: as §1

[6] = test system: Klebsiella pneumoniae KPC-2; assay: MIC, CLSI broth microdilution; settings: KPC2
Summary of the method: as §1

[7] = test system: Klebsiella pneumoniae KPC-3; assay: MIC, CLSI broth microdilution; settings: KPC3, KPC-3, read-out: MIC
Summary of the method: as §1

[8] = test system: Klebsiella pneumoniae OXA-163, OXA-1_OXA-30, SHV-1, TEM-1; assay: MIC, CLSI broth microdilution
Summary of the method: (§2)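 CLSI broth microdilution; 2-fold compound series, final 16-0.0125 μg/mL; final inoculum 5×10^5 CFU/mL. Strains genotyped for resistance markers, passaged twice from frozen stock before testing.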

[9] = test system: Klebsiella pneumoniae OXA-48, SHV-1; assay: MIC, CLSI broth microdilution
Summary of the method: as §2

[10] = test system: Pseudomonas aeruginosa OprD negative; assay: MIC, CLSI broth microdilution
Summary of the method: as §2

[11] = test system: Citrobacter freundii species complex Elevated AmpC; assay: MIC against Elevated AmpC producing strains, compound alone; settings: row r16
Method: (§3) Gram-negative and Gram-positive bacterial strains used during the in vitro minimum inhibitory concentration (MIC) determination were obtained either from the American Type Culture Collection (ATCC) or from clinical specimens. All strains were characterized genotypically and the respective antibiotic resistance markers for each strain were identified.
(§4) Isolates were sub-cultured onto appropriate media and stocked in skim milk at −80° C. Following two subcultures from frozen stock, in vitro antimicrobial susceptibility testing was performed using the Clinical and Laboratory Standards Institute (CLSI) broth microdilution method. Briefly, fresh cultures were suspended in culture media to give a final stock inoculum size of 5×10^7 colony forming units per milliliter of broth (CFU/mL). Test compounds were prepared at a stock solution concentration equal to 128 μg/mL, then diluted to give a final an initial working concentration of 32 μg/mL. 100 μL of the stock solutions were added to the first wells in a 96-well plate and were then diluted using a 2-fold dilution method to give a range of 32-0.025 μg/mL. 100 μL of the bacterial suspensions were then added to the 96-well plates to give a final working inoculum size of 5×10^5 CFU/mL. The final compound concentration range was 16-0.0125 μg/mL. […] MICs for comparator agents were determined using custom-designed, in-house prepared 96-well broth microdilution panels.

[12] = test system: Enterobacter cloacae species complex Elevated AmpC; assay: as above
Method: as §3, §4

[13] = test system: Escherichia coli Elevated AmpC; assay: as above
Method: as §3, §4

Escherichia coli CMY-DHA [14] = assay: MIC against CMY-DHA producing strains, compound alone
Method: as §3, §4

[15] = test system: Klebsiella pneumoniae CMY-DHA; assay: as above; settings: row r32
Method: as §3, §4

[16] = test system: Proteus mirabilis CMY-DHA; assay: as above; settings: row r36
Method: as §3, §4

[17] = test system: Citrobacter freundii species complex Elevated AmpC; assay: Synergistic activity: MIC in the presence of Avibactam; settings: row r16, in the presence of Avibactam @ 4 μg/mL
Method: as §4
(§5) The same method used to test the activity of the claimed compounds was used to determine their synergistic activity when combined with a β-lactamase inhibitor except that either a fixed concentration or fixed ratio of a β-lactamase inhibitor was added to the 96-well plates prior to adding the bacteria cultures. Synergistic activity was defined as the reduction of MIC of a given compound when tested using the β-lactamase inhibitor versus testing the compound in the absence of a β-lactamase inhibitor.

[18] = test system: Enterobacter cloacae species complex Elevated AmpC; assay: as above
Method: as §4, §5

Escherichia coli CMY-DHA [19] = assay: as above
Method: as §4, §5

[20] = test system: Escherichia coli Elevated AmpC; assay: as above
Method: as §4, §5

[21] = test system: Klebsiella pneumoniae CMY-DHA; assay: as above; settings: row r32, in the presence of Avibactam @ 4 μg/mL
Method: as §4, §5

[22] = test system: Proteus mirabilis CMY-DHA; assay: as above; settings: row r36, in the presence of Avibactam @ 4 μg/mL
Method: as §4, §5

## Nc1nc(/C(=N/OC2(C(=O)O)CC2)C(=O)N[C@H]2CON(C3(C(=O)O)C[C@H](N4Cc5cc(O)c(O)cc5C4=O)C(=O)O3)C2=O)cs1 (stereo partly drawn) [Cmpd 28, (4S)-2-[(4S)-4-{[(2Z)-2-(2-amino-1,3-thiazol-4-yl)-2-{[(1-carboxycyclopropyl)oxy]imino}acetyl]amino}-3-oxo-1,2-oxazolidin-2-yl]-4-(5,6-dihydroxy-1-oxo-1,3-dihydro-2H-isoindol-2-yl)-5-oxooxolane-2-carboxylic acid]
[1]
  MIC: 0.12 mg/L (≈ 0.186 µM)
[2]
  MIC: 2 mg/L (≈ 3.09 µM)
[3]
  MIC: 1 mg/L (≈ 1.55 µM)
[4]
  MIC: 0.12 mg/L (≈ 0.186 µM)
[5]
  MIC: 0.0149 mg/L (≈ 0.023 µM)
[6]
  MIC: 0.0149 mg/L (≈ 0.023 µM)
[7]
  MIC: 0.25 mg/L (≈ 0.387 µM)
[8]
  MIC: 0.25 mg/L (≈ 0.387 µM)
[9]
  MIC: 0.0149 mg/L (≈ 0.023 µM)
[10]
  MIC: 0.5 mg/L (≈ 0.773 µM)
[11]
  MIC: 1 mg/L (≈ 1.55 µM)
[12]
  MIC: 2 mg/L (≈ 3.09 µM)
[12]; strain of row r7
  MIC: 8 mg/L (≈ 12.4 µM)
[12]; strain of row r20
  MIC: 1 mg/L (≈ 1.55 µM)
[13]; strain of row r10
  MIC: 0.06 mg/L (≈ 0.0928 µM)
[13]; strain of row r11
  MIC: 0.5 mg/L (≈ 0.773 µM)
[13]; strain of row r12
  MIC: 1 mg/L (≈ 1.55 µM)
[13]; strain of row r13
  MIC: 0.25 mg/L (≈ 0.387 µM)
[13]; strain of row r14
  MIC: 0.12 mg/L (≈ 0.186 µM)
[13]; strain of row r15
  MIC: 1 mg/L (≈ 1.55 µM)
Escherichia coli CMY-DHA [14]; strain of row r26
  MIC: 4 mg/L (≈ 6.19 µM)
Escherichia coli CMY-DHA [14]; strain of row r27
  MIC: 0.25 mg/L (≈ 0.387 µM)
Escherichia coli CMY-DHA [14]; strain of row r28
  MIC: 0.5 mg/L (≈ 0.773 µM)
Escherichia coli CMY-DHA [14]; strain of row r29
  MIC: 4 mg/L (≈ 6.19 µM)
Escherichia coli CMY-DHA [14]; strain of row r30
  MIC: 1 mg/L (≈ 1.55 µM)
Escherichia coli CMY-DHA [14]; strain of row r31
  MIC: 8 mg/L (≈ 12.4 µM)
Escherichia coli CMY-DHA [14]; strain of row r34
  MIC: 1 mg/L (≈ 1.55 µM)
Escherichia coli CMY-DHA [14]; strain of row r35
  MIC: 2 mg/L (≈ 3.09 µM)
[15]
  MIC: 2 mg/L (≈ 3.09 µM)
[16]
  MIC: 2 mg/L (≈ 3.09 µM)
[17]
  MIC: 0.12 mg/L
[18]; in the presence of Avibactam @ 4 μg/mL
  MIC: 0.25 mg/L
[18]; strain of row r7, in the presence of Avibactam @ 4 μg/mL
  MIC: 0.5 mg/L
[18]; strain of row r20, in the presence of Avibactam @ 4 μg/mL
  MIC: 0.015 mg/L
Escherichia coli CMY-DHA [19]; strain of row r26, in the presence of Avibactam @ 4 μg/mL
  MIC: 0.12 mg/L
Escherichia coli CMY-DHA [19]; strain of row r27, in the presence of Avibactam @ 4 μg/mL
  MIC: <=0.008 μg/mL
Escherichia coli CMY-DHA [19]; strain of row r28, in the presence of Avibactam @ 4 μg/mL
  MIC: 0.06 mg/L
Escherichia coli CMY-DHA [19]; strain of row r29, in the presence of Avibactam @ 4 μg/mL
  MIC: 0.12 mg/L
Escherichia coli CMY-DHA [19]; strain of row r30, in the presence of Avibactam @ 4 μg/mL
  MIC: <=0.008 μg/mL
Escherichia coli CMY-DHA [19]; strain of row r31, in the presence of Avibactam @ 4 μg/mL
  MIC: 0.12 mg/L
Escherichia coli CMY-DHA [19]; strain of row r34, in the presence of Avibactam @ 4 μg/mL
  MIC: 0.015 mg/L
Escherichia coli CMY-DHA [19]; strain of row r35, in the presence of Avibactam @ 4 μg/mL
  MIC: 0.03 mg/L
[20]; strain of row r10, in the presence of Avibactam @ 4 μg/mL
  MIC: 0.015 mg/L
[20]; strain of row r11, in the presence of Avibactam @ 4 μg/mL
  MIC: 0.06 mg/L
[20]; strain of row r12, in the presence of Avibactam @ 4 μg/mL
  MIC: 0.03 mg/L
[20]; strain of row r13, in the presence of Avibactam @ 4 μg/mL
  MIC: <=0.008 μg/mL
[20]; strain of row r14, in the presence of Avibactam @ 4 μg/mL
  MIC: 0.06 mg/L
[20]; strain of row r15, in the presence of Avibactam @ 4 μg/mL
  MIC: 0.25 mg/L
[21]
  MIC: 0.12 mg/L
[22]
  MIC: 0.03 mg/L
